Data taken from US20210300924A1, “5-[6-[[3-(4,5,6,7-TETRAHYDROPYRAZOLO[4,3-C]PYRIDIN-1-YL)AZETIDIN-1-YL]METHYL]MORPHOLIN-4-YL]QUINOLINE-8-CARBONITRILE DERIVATIVES AND SIMILAR COMPOUNDS AS TLR7-9 ANTAGONISTS FOR TREATING SYSTEMIC LUPUS ERYTHEMATOSUS” (Hoffmann-La Roche Inc., priority 2018, published 2021).

Key:
[1] = Human microsome stability assay; type: in vitro ADME; conditions: 1 μM test compound, 0.5 mg/mL liver microsomal protein, 37° C., up to 30 minutes; 6.2 = detection limit
Protocol: Human Microsome Stability Assay
The human microsomal stability assay is used for early assessment of metabolic stability of a test compound in human liver microsomes.
Human liver microsomes (Cat. NO.: 452117, Corning, USA; Cat. NO.:H2610, Xenotech, USA) were preincubated with test compound for 10 minutes at 37° C. in 100 mM potassium phosphate buffer, pH 7.4. The reactions were initiated by adding NADPH regenerating system. The final incubation mixtures contained 1 μM test compound, 0.5 mg/mL liver microsomal protein, 1 mM MgCl2, 1 mM NADP, 1 unit/mL isocitric dehydrogenase and 6 mM isocitric acid in 100 mM potassium phosphate buffer, pH 7.4. After incubation times of 0, 3, 6, 9, 15 and 30 minutes at 37° C., 300 μL of cold acetonitrile (including internal standard) was added to 100 μL incubation mixture to terminate the reaction. Following precipitation and centrifugation, the amount of compound remaining in the samples were determined by LC-MS/MS. Controls of no NADPH regenerating system at zero and 30 minutes were also prepared and analyzed.

TLR9 = target: T1, TLR9 (Homo sapiens, UniProt Q9NR96); experiment: Human PBMC cell-based assay; design: endogenous in cells; host or cells: human PBMC from healthy donor whole blood; conditions: CpG ODN 2216 stimulation, overnight, cytokine readout, read-out: hPBMC/TLR9 IC50
T1 sequence (Q9NR96 26-1032): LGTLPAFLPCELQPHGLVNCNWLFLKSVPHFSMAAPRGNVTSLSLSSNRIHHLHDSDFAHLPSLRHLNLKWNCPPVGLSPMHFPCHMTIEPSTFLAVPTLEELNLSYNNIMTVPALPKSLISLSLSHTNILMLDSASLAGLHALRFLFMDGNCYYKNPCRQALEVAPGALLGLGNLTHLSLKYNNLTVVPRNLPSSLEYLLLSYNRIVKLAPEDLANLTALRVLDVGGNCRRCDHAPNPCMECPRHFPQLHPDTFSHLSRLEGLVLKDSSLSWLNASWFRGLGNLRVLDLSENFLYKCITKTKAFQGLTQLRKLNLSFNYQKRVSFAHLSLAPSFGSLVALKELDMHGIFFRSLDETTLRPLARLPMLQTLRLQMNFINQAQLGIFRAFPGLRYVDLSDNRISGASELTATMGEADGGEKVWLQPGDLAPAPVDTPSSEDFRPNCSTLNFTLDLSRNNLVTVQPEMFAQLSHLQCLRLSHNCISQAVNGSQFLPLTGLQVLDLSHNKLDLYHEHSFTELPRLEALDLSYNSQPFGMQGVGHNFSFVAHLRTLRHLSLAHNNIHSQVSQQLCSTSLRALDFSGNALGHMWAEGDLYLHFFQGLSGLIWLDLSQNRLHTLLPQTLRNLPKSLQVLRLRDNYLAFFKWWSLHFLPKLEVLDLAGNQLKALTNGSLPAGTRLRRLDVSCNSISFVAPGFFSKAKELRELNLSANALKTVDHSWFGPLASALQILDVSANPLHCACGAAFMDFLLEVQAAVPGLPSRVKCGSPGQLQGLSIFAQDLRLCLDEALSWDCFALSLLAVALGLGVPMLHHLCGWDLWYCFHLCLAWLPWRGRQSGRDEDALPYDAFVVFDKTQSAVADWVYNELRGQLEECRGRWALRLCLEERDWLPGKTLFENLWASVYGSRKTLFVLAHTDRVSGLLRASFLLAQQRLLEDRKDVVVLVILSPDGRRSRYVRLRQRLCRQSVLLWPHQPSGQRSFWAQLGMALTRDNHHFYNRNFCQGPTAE
From the text: Human PBMC Cell-Based Assay
Unlike the HEK reporter cell lines, human peripheral blood mononuclear cell (PBMC) represents primary human immune cells in blood mainly consisting of lymphocytes, monocytes, and dendritic cells. These cells express TLR7, TLR8, or TLR9, and therefore are natural responders to respective ligand stimulation. Upon activation of these TLRs, PBMCs secrete similar cytokines and chemokines in vitro and in vivo, and therefore the in vitro potency of a TLR7/8/9 antagonist in human PBMC is readily translatable to its pharmacodynamics response in vivo.
Human peripheral blood mononuclear cells (PBMC) were isolated from freshly-drawn lithium-heparinized (Lithium Heparin Plus blood Collection tube, BD Vacutainer®) healthy donor whole blood by density gradient (Ficoll-Paque™ PLUS, GE Healthcare life Sciences). Briefly, […] was diluted with 25 mL PBS (without Ca^2+, Mg^2+) in a 50 mL conical tube with porous barrier (Leucosep tube, Greiner bio-one), where 15.5 mL Ficoll-Paque was under laid after spinning. Tubes were centrifuged for 20 minutes at 800×g (1946 rpm) with the brake in the off position, and PBMC were collected from the buffy coat. Cells were then washed twice in PBS, and red blood cells were lysed by suspension in 2 mL (Red Blood Cell Lysis Buffer, Alfa Aesar) for 5-10 minutes at room temperature. After a final wash in PBS, PBMC were resuspended at a final concentration of 2×10^6 cells/mL in RPMI-1640 media with GlutaMAX™ (Gibco) supplemented with 10% Fetal Bovine Serum (Sigma) and plated at 150 μL/well (3×10^5 cells/well) in tissue culture treated round bottom 96-well plates (Corning Incorporated). Antagonist compounds (compounds of this invention) solubilized and serial diluted in 100% DMSO were added in duplicate to cells to yield a final concentration of 1% DMSO (v/v). PBMC were incubated with antagonist compounds for 30 minutes at 37° C., 5% CO2 before adding various TLR agonist reagents in 48 μL complete media per well as follows (final concentrations indicated): CpG ODN 2216 (InvivoGen) at […] for TLR9, ORN 06/LyoVec (InvivoGen) at 1 μg/mL for TLR8 and R848 (InvivoGen) at 1 μg/mL for TLR7 and TLR8. PBMC were incubated overnight at 37° C. with 5% CO2. Cell culture supernatants were collected, and levels of various human cytokines were assessed by Luminex assay (ProcartaPlex™ Multiplex Immunoassay, Invitrogen) or ELISA procedure according to the manufacturer's recommended protocol (eBioscience, ThermoFisher Scientific). Viability of the cells was also checked with Cell Viability Assay (CellTiter Glo® Luminescent Cell Viability Assay, Promega).

Structure (SMILES) | Clearance of Human microsome [1] | IC50 (TLR9)
C[C@@H]1Cc2nn(C3CN(C[C@H]4CN(c5ccc(C#N)c6ncccc56)C[C@@H](C)O4)C3)cc2CN1 [Example 17, 5-[(2R,6S)-2-methyl-6-[[3-[(6R)-6-methyl-4,5,6,7-tetrahydropyrazolo[4,3-c]pyridin-2-yl]azetidin-1-yl]methyl]morpholin-4-yl]quinoline-8-carbonitrile] | 6.2 mL/min/kg | 113 nM
C[C@@H]1CN(c2ccc(C#N)c3ncccc23)C[C@H](CN2CC(n3cc4c(n3)[C@H](C)NCC4)C2)O1 (single isomer, unassigned) [Example 34] | 6.4 mL/min/kg | 202 nM
C[C@@H]1CN(c2ccc(C#N)c3ncccc23)C[C@H](CN2CC(n3ncc4c3CCN[C@@H]4C)C2)O1 [Example 20, 5-[(2R,6S)-2-methyl-6-[[3-[(4R)-4-methyl-4,5,6,7-tetrahydropyrazolo[4,3-c]pyridin-1-yl]azetidin-1-yl]methyl]morpholin-4-yl]quinoline-8-carbonitrile] | 6.2 mL/min/kg | 97 nM
C[C@@H]1CN(c2ccc(C#N)c3ncccc23)C[C@H](CN2CC(n3cc4c(n3)CCN[C@@H]4C)C2)O1 [Example 21, 5-[(2R,6S)-2-methyl-6-[[3-[(4R)-4-methyl-4,5,6,7-tetrahydropyrazolo[4,3-c]pyridin-2-yl]azetidin-1-yl]methyl]morpholin-4-yl]quinoline-8-carbonitrile] | 6.2 mL/min/kg | 92 nM
C[C@@H]1CN(c2ccc(C#N)c3ncccc23)C[C@H](CN2CC(n3cc4c(n3)CN[C@@H](C)C4)C2)O1 (single isomer, unassigned) [Example 29] | 6.6 mL/min/kg | 115 nM
C[C@@H]1CN(c2ccc(C#N)c3ncccc23)C[C@H](CN2CC(n3cc4c(n3)CCN[C@H]4C)C2)O1 [Example 23, 5-[(2R,6S)-2-methyl-6-[[3-[(4S)-4-methyl-4,5,6,7-tetrahydropyrazolo[4,3-c]pyridin-2-yl]azetidin-1-yl]methyl]morpholin-4-yl]quinoline-8-carbonitrile] | 6.2 mL/min/kg | 143 nM
C[C@@H]1Cc2c(cnn2C2CN(C[C@H]3CN(c4ccc(C#N)c5ncccc45)C[C@@H](C)O3)C2)CN1 [Example 16, 5-[(2R,6S)-2-methyl-6-[[3-[(6R)-6-methyl-4,5,6,7-tetrahydropyrazolo[4,3-c]pyridin-1-yl]azetidin-1-yl]methyl]morpholin-4-yl]quinoline-8-carbonitrile] | 7.2 mL/min/kg | 84 nM
C[C@@H]1Cc2cn(C3CN(C[C@H]4CN(c5ccc(C#N)c6ncccc56)C[C@@H](C)O4)C3)nc2CN1 (single isomer, unassigned) [Example 30] | 6.2 mL/min/kg | 162 nM
C[C@@H]1CN(c2ccc(C#N)c3ncccc23)C[C@H](CN2CC(n3cc4c(n3)CN(C)CC4)C2)O1 [Example 5, 5-[(2R,6S)-2-methyl-6-[[3-(6-methyl-5,7-dihydro-4H-pyrazolo[3,4-c]pyridin-2-yl)azetidin-1-yl]methyl]morpholin-4-yl]quinoline-8-carbonitrile] | 6.2 mL/min/kg | 318 nM
C[C@@H]1CN(c2ccc(C#N)c3ncccc23)C[C@H](CN2CC(n3cc4c(n3)CNCC4)C2)O1 [Example 4, 5-[(2R,6S)-2-methyl-6-[[3-(4,5,6,7-tetrahydropyrazolo[3,4-c]pyridin-2-yl)azetidin-1-yl]methyl]morpholin-4-yl]quinoline-8-carbonitrile] | 6.2 mL/min/kg | 198 nM
C[C@@H]1CN(c2ccc(C#N)c3ncccc23)C[C@H](CN2CC(n3cc4c(n3)CNC4)C2)O1 [Example 11, 5-[(2S,6R)-2-[[3-(5,6-dihydro-4H-pyrrolo[3,4-c]pyrazol-2-yl)azetidin-1-yl]methyl]-6-methyl-morpholin-4-yl]quinoline-8-carbonitrile] | 6.2 mL/min/kg | –
C[C@@H]1Cc2cnn(C3CN(C[C@H]4CN(c5ccc(C#N)c6ncccc56)C[C@@H](C)O4)C3)c2CN1 (single isomer, unassigned) [Example 28] | 6.2 mL/min/kg | 214 nM
C[C@@H]1CN(c2ccc(C#N)c3ncccc23)C[C@H](CN2CCC(n3ncc4c3CCNC4)CC2)O1 [Example 35, 5-[(2R,6S)-2-methyl-6-[[4-(4,5,6,7-tetrahydropyrazolo[4,3-c]pyridin-1-yl)-1-piperidyl]methyl]morpholin-4-yl]quinoline-8-carbonitrile] | 7.7 mL/min/kg | –
